Results taken from patent publication US20060216761A1, “Isolation material for hormone disrupting substance, method of concentrating and method of clean-up” (priority 2002, published 2006).

Tested on: purified anti-estrogen polyclonal antibody
Assay: Cross reactivity of purified anti-estrogen polyclonal antibody
Type: binding, rabbit
Details: assuming E2=100%
Description: In the E3-16G-KLH-immunized rabbits, third immunization (immunization number 3) led to an equilibrium of antibody titer, and 168 mg of purified anti-estrogen polyclonal antibody was obtained from one rabbit.

Molecule	Cross reactivity
C[C@]12CC[C@@H]3c4ccc(O)cc4CC[C@H]3[C@@H]1C[C@@H](O)[C@@H]2O [Estriol (E3), Estriol]	69%
C#C[C@]1(O)CC[C@H]2[C@@H]3CCc4cc(O)ccc4[C@H]3CC[C@@]21C [Ethynylestradiol (EE2), Ethynylestradiol]	7%
CC(C)(c1ccc(O)cc1)c1ccc(O)cc1 [Bisphenol A (BPA), Bisphenol A]	<0.02%
Oc1ccc(Cl)cc1Cl [2,4-Dichlorophenol (2,4DCP), 2,4-Dichlorophenol]	<0.02%
CCCCC(CC)COC(=O)c1ccccc1C(=O)OCC(CC)CCCC (stereo not drawn) [Diethylhexyl phthalate (DEHP), Diethylhexyl phthalate]	<0.02%
t-Nonylphenol [t-Nonylphenol (NP)]	<0.02%
Nonylphenol ethoxylate [Nonylphenol ethoxylate (NP10EO)]	<0.02%
C[C@]12CC[C@@H]3c4ccc(O)cc4CC[C@H]3[C@@H]1CC[C@@H]2O [17β-Estradiol (E2), 17β-Estradiol]	100%

Tested on: purified anti-resin component antibody
Assay: Cross reactivity of purified anti-resin component antibody
Type: binding, rabbit
Details: assuming BPA=100%
Description: Also, even in the BPA-2-KLH-immunized rabbits, sixth immunization (immunization number 6) led to an equilibrium of antibody titer, and 178 mg of purified anti-resin component antibody was obtained from one rabbit. When assuming BPA=100% for this purified antibody, cross reactivity was as shown in Table 12; as specificity for BPA was high, it was proven that BPA only can be specifically concentrated or cleaned up.

Molecule	Cross reactivity
CC(CCC(=O)O)(c1ccc(O)cc1)c1ccc(O)cc1 [4,4′-Bis(p-hydroxyphenyl)pentanoic acid]	<0.4%
O=S(=O)(c1ccc(OCCO)cc1)c1ccc(OCCO)cc1 [Bis[4-(2-hydroxyethoxy)phenyl]sulfone]	<0.4%
CC(C)(c1ccc(OCC2CO2)cc1)c1ccc(OCC2CO2)cc1 (stereo not drawn) [BPA diglycidyl ether]	<0.4%
CC(C)(c1ccc(O)cc1)c1ccc(O)cc1 [Bisphenol A (BPA), Bisphenol A]	100%
CC(CO)(c1ccc(O)cc1)c1ccc(O)cc1 [2,2′-Bis(4-hydroxyphenyl)-1-propanol]	9.3%
O=C(c1ccc(O)cc1)c1ccc(O)cc1 [p,p′-Dihydroxybenzophenone]	<0.4%
CC(O)(Cc1ccc(O)cc1)c1ccc(O)cc1 (stereo not drawn) [1,2-Bis(4-hydroxyphenyl)-2-propanol]	<0.4%
O=S(=O)(c1ccc(O)cc1)c1ccc(O)cc1 [Bisphenol S (BPS), Bisphenol S]	<0.4%
CCC(C)(c1ccc(O)cc1)c1ccc(O)cc1 [Bisphenol B (BPB), Bisphenol B]	22.5%
CC(c1ccc(O)cc1)c1ccc(O)cc1 [Bisphenol E (BPE), Bisphenol E]	6.6%
C=C(C)C(=O)Oc1ccc(C(C)(C)c2ccc(OC(=O)C(=C)C)cc2)cc1 [BPA dimethacrylate]	2.7%
Oc1ccc(Oc2ccc(O)cc2)cc1 [4,4′-Dihydroxydiphenyl ether]	<0.4%
Oc1ccc(Cc2ccc(O)cc2)cc1 [Bis(p-hydroxyphenyl)methane]	1.0%
CC(=O)Oc1ccc(C(C)(C)c2ccc(OC(C)=O)cc2)cc1 [BPA diacetate]	11.1%

Tested on: not listed separately
Assay: Resistance of monoclonal antibody to a detergent
Set-up: species or system mouse
Details: compared with antibody from EE2-277 line

Molecule	resistance to a detergent of the antibody
EE2-8-18: anti-ethynyl estradiol monoclonal antibody from mouse hybridoma EE2-8-18 line (antibody, V domains shown, Mouse, anti-ethynyl estradiol monoclonal antibody from mouse hybridoma EE2-8-18 line) VH: VQVKESGPGLVAPSQSLSISCTVSGFPLTSYGVQWVRQPPGKGLEWLGVIWPGGSTNYNSALMSRLSISKDNSKSQVFLKMNSLQTDDTAMYYCAGWFQTGPRLFAYWGQGTLVTVSA VL: DIQMTQSPASLSASVGETVTITCRASENIHSYLAWYQQKQGKSPQVLVYNAKTLGEGVSSRFSGSGSGTQFSLKINSLQPEDFGTYYCQNHYGSPWTFGGGTKLESK	slightly lower than that of one from EE2-277 line
EE2-3: anti-ethynyl estradiol monoclonal antibody from mouse hybridoma EE2-3 line (antibody, Mouse; (5)..(5) Xaa = unknown for each location where they appear, anti-ethynyl estradiol monoclonal antibody from mouse hybridoma EE2-3 line) VH: VTLKXSGPGILQPSQTLSLTCSFSGFSLSTSDLGVSWIRQTSGKGLEWLAHIYWNDDKYYNPSLKSRLTISKDTSGNLVFLRITSVDTDDSATYYCARSPLYGSLTYWGQGTLVTVSA light: DIVMSQSPSSLAVSVGEKVTLNCKSSQSLLNSRTRKNYLAWYQQKPGQSPKLLISWASTRESGVPDRFTGSGSGTDFTLTISSVQAEDLAVYYCNQFYYLLTFGAGTKLELKRADAAPTVSIFPPSSEQLTSGGASVVCFLNNFYPKDINVKWKIDGSERQNGVLNSWTDQDSKDSTYSMSSTLTLTKDEYERHNSYTCEATHKTSTSPIVKSFNRNE	the same as that of one from EE2-277 line

Tested on: purified anti-resin plasticizer antibody
Assay: Cross reactivity of purified anti-resin plasticizer antibody
Type: binding, rabbit
Details: assuming DBP=100%

Molecule	Cross reactivity
CC(C)CCCCCCOC(=O)c1ccccc1C(=O)OCCCCCCC(C)C [Diisononyl phthalate]	<1%
CCCCCCOC(=O)c1ccccc1C(=O)OCCCCCC [Dihexyl phthalate]	4%
O=C(OC1CCCCC1)c1ccccc1C(=O)OC1CCCCC1 [Dicyclohexyl phthalate]	<1%
CCCOC(=O)c1ccccc1C(=O)OCCC [Dipropyl phthalate]	27%
CCCCC(CC)COC(=O)c1ccccc1C(=O)OCC(CC)CCCC (stereo not drawn) [Diethylhexyl phthalate (DEHP), Diethylhexyl phthalate]	<1%
CCOC(=O)c1ccccc1C(=O)OCC [Diethyl phthalate]	7%
CCCCC(CC)COC(=O)CCCCC(=O)OCC(CC)CCCC (stereo not drawn) [Diethylhexyl adipate]	<1%
CCCCOC(=O)c1ccccc1C(=O)OCCCC [Dibutyl phthalate]	100%
CCCCCOC(=O)c1ccccc1C(=O)OCCCCC [Dipentyl phthalate]	10%
